Assay [1] concerns the target T1, FPR2 (Homo sapiens, UniProt P25090).
T1 construct: expressed in transfected cells; host or cells: RBL cells (RBL-FPR2)
T1 sequence (P25090 1-351): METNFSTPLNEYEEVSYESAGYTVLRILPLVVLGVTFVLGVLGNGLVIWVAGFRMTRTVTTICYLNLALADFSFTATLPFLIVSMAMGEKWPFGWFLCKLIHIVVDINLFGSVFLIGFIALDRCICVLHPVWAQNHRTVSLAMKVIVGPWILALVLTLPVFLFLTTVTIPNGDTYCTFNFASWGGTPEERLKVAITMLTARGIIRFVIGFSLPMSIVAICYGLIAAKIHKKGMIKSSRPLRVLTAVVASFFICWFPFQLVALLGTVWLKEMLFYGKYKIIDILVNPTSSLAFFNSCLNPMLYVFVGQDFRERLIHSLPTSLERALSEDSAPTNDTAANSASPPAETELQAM
Description: Change in calcium activity by peptide (Fura-2) in RBL cells overexpressing FPR2. The conditions noted are these: calcium activity (Fura-2), graded per Table 3, read-out: EC50 for [Ca^2+] FPR2. The assay is classed as cell-based. The gist of the method: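 Rat basophilic leukemia cells overexpressing FPR2 loaded with Fura-2 (37 °C 1 h, then RT 30 min dark); peptides (0.5 mM stocks in water or 50% DMSO) diluted in HBSS + 20 mM HEPES and added on a plate reader, intracellular Ca2+ change recorded.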

In assay [2] the target is T2, FPR1 (Homo sapiens, UniProt P21462).
T2 sequence (P21462 1-350): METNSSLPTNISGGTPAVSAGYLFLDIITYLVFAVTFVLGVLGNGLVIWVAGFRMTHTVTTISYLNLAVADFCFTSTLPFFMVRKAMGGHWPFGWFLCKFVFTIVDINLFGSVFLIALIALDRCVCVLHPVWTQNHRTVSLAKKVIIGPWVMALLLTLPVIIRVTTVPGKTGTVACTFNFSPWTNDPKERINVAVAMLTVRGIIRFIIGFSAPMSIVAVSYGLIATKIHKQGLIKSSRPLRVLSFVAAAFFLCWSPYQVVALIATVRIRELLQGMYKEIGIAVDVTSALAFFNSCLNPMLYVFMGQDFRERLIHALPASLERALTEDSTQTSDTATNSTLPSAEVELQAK
Description: Change in calcium activity by peptide, FPR1 activation effect. It is filed as cell-based. The conditions noted are these: calcium activity (Fura-2), graded per Table 3, read-out: EC50 for [Ca^2+] FPR1. The gist of the method: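 Cells plated at 3×10^5 per well the day before were loaded with Fura-2 for 1 h at 37 °C, then kept 30 min in the dark at room temperature. Peptide-evoked calcium changes were recorded on a FlexStation 3.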

Peptide text beside a SMILES is read from it. Bounds are passed on as bounds.

One may read the EC50 as the concentration needed to bring the measured effect to its halfway point. Regarding `CCCCCCCC(=O)N[C@@H](Cc1c[nH]cn1)C(=O)N[C@@H](CCSC)C(=O)N[C@@H](CCCNC(=N)N)C(=O)N[C@@H](Cc1ccc(O)cc1)C(=O)N[C@@H](CCCCN)C(=O)N1CCC[C@H]1C(=O)N[C@H](CCSC)C(N)=O` [Peptide 61] (HELM PEPTIDE1{[CCCCCCCC(=O)[*:2]].H.M.R.Y.K.P.[dM].[am]}$$$$V2.0), the concentration for a half-maximal effect (EC50) is < 10 nM in assay [1] and > 10000 nM in assay [2].

Consider `CCCCCCCC(=O)N[C@@H](CCCNC(=N)N)C(=O)N[C@@H](CCSC)C(=O)N[C@@H](CCCNC(=N)N)C(=O)N[C@@H](Cc1ccc(O)cc1)C(=O)N[C@@H](CCCCN)C(=O)N[C@H](C(=O)N[C@H](CCSC)C(N)=O)C(C)C` [Peptide 8] (HELM PEPTIDE1{[CCCCCCCC(=O)[*:2]].R.M.R.Y.K.V.[dM].[am]}$$$$V2.0), for which the values for the EC50 in assay [1] and in assay [2] were 11 to 100 nM and > 10000 nM, respectively.

In the case of `CSCC[C@@H](NC(=O)[C@@H](NC(=O)[C@H](CC(C)C)NC(=O)[C@H](Cc1ccc(O)cc1)NC(=O)[C@H](CCCNC(=N)N)NC(=O)[C@H](Cc1c[nH]c2ccccc12)NC(=O)[C@@H](N)CCCNC(=N)N)C(C)C)C(N)=O` [Peptide 158] (HELM PEPTIDE1{R.W.R.Y.L.V.[dM].[am]}$$$$V2.0), the figures for the EC50 in assay [1] and in assay [2] were 11 to 100 nM and 1000 to 10000 nM, respectively.

With `CSCC[C@@H](NC(=O)[C@@H]1CCCN1C(=O)[C@H](CCCCN)NC(=O)[C@H](Cc1ccc(O)cc1)NC(=O)[C@H](CCCNC(=N)N)NC(=O)[C@H](Cc1c[nH]c2ccccc12)NC(=O)[C@@H](N)CCCNC(=N)N)C(N)=O` [Peptide 74] (HELM PEPTIDE1{R.W.R.Y.K.P.[dM].[am]}$$$$V2.0), the EC50 in assay [1] is < 10 nM; in assay [2], > 10000 nM.

As for `CC[C@H](C)[C@H](NC(C)=O)C(=O)N[C@@H](CCCCN)C(=O)N[C@@H](Cc1ccc(O)cc1)C(=O)N[C@@H](CCCCN)C(=O)N[C@H](C(=O)N[C@H](CCSC)C(N)=O)C(C)C` [Peptide 135] (HELM PEPTIDE1{[ac].I.K.Y.K.V.[dM].[am]}$$$$V2.0), the EC50 in assay [1] is < 10 nM; in assay [2], > 10000 nM.

With `CSCC[C@@H](NC(=O)[C@@H](NC(=O)[C@H](Cc1ccc(O)cc1)NC(=O)[C@H](Cc1ccc(O)cc1)NC(=O)[C@H](CCCNC(=N)N)NC(=O)[C@H](Cc1c[nH]c2ccccc12)NC(=O)[C@@H](N)CCCNC(=N)N)C(C)C)C(N)=O` [Peptide 94] (HELM PEPTIDE1{R.W.R.Y.Y.V.[dM].[am]}$$$$V2.0), the figures for the EC50 in assay [1] and in assay [2] were < 10 nM and 1000 to 10000 nM, respectively.

`CSCC[C@@H](NC(=O)[C@@H](NC(=O)[C@H](CCCCN)NC(=O)[C@H](Cc1ccc(O)cc1)NC(=O)[C@H](CCCNC(=N)N)NC(=O)[C@H](Cc1c[nH]c2ccccc12)NC(=O)[C@@H](N)CCCNC(=N)N)C(C)C)C(N)=O` [Peptide 1] (HELM PEPTIDE1{R.W.R.Y.K.V.[dM].[am]}$$$$V2.0): the figures for the EC50 in assay [1] and in assay [2] were < 10 nM and > 10000 nM, respectively.

As for `CCCCCCCC(=O)N[C@@H](Cc1c[nH]cn1)C(=O)N[C@@H](CCCCN)C(=O)N[C@@H](Cc1ccc(O)cc1)C(=O)N[C@@H](CCCCN)C(=O)N1CCC[C@H]1C(=O)N[C@H](CCSC)C(N)=O` [Peptide 149] (HELM PEPTIDE1{[CCCCCCCC(=O)[*:2]].H.K.Y.K.P.[dM].[am]}$$$$V2.0), the EC50 was < 10 nM in assay [1] and > 10000 nM in assay [2].

On to `CSCC[C@H](NC(C)=O)C(=O)N[C@@H](CCCNC(=N)N)C(=O)N[C@@H](Cc1ccc(O)cc1)C(=O)N[C@@H](Cc1ccc(O)cc1)C(=O)N[C@@H](Cc1ccc(O)cc1)C(=O)N[C@H](CCSC)C(N)=O` [Peptide 126] (HELM PEPTIDE1{[ac].M.R.Y.Y.Y.[dM].[am]}$$$$V2.0), for which the half-maximal effective concentration (EC50) in assay [1] is 11 to 100 nM; in assay [2] it was > 10000 nM.

As to `CSCC[C@H](N)C(=O)N[C@@H](CCCNC(=N)N)C(=O)N[C@@H](Cc1ccc(O)cc1)C(=O)N[C@@H](CCCCN)C(=O)N1CCC[C@H]1C(=O)N[C@H](CCSC)C(N)=O` [Peptide 54] (HELM PEPTIDE1{M.R.Y.K.P.[dM].[am]}$$$$V2.0), the EC50 in assay [1] was < 10 nM; in assay [2] it was > 10000 nM.

(Values after patent US20250361268A1, “NOVEL ANTI-INFLAMMATORY PEPTIDE AND USE THEREOF” (NOVACELL TECHNOLOGY INC., priority 2022, published 2025).)
